Biological target: T1, Recombinant truncated stromelysin (human sequence) (Homo sapiens, UniProt P08254)
T1 construct: made in house; host or cells: E. coli
Assay: Inhibition of stromelysin (cleavage of thiopeptide ester substrate, DTNB readout at 405 nm)
Format: biochemical
Settings: 30 minute assay, ambient temperature, pH 6.5, thiopeptide ester substrate
Experimental: The efficacy of the compounds of this invention as matrix metalloproteinase inhibitors was determined by measuring the inhibition of stromelysin. The inhibition of stromelysin by the compounds of this invention was determined as follows: Recombinant truncated stromelysin (human sequence) produced in E. coli was prepared by expression and purification of the protein as described by Ye et al. (Biochemistry, 1992, 31, 11231-11235, which is incorporated herein by reference). The enzyme was assayed by its cleavage of the thiopeptide ester substrate Ac-Pro-Leu-Gly-[2-mercapto-4-methylpentanoyl]-Leu-Gly-OEt as described by Weingarten and Feder (Anal. Biochem., 1985, 147, 437-440 (1985), which is incorporated herein by reference) as a substrate of vertebrate collagenase. The reported conditions were modified to allow assays to be carried out in a microtiter plate. Upon hydrolysis of the thioester bond, the released thiol group reacted rapidly with 5,5'-dithio-bis(2-nitrobenzoic acid) (DTNB) to produce a yellow color which was measured by a microtiter plate reader set at 405 nm. The rates of cleavage of the substrate by stromelysin in the presence or absence of inhibitors were measured in a 30 minute assay at ambient temperature. […] The potency of the compounds [IC50 ] was calculated from the inhibition/inhibitor concentration data.

T1 sequence (P08254 100-273 limits assumed): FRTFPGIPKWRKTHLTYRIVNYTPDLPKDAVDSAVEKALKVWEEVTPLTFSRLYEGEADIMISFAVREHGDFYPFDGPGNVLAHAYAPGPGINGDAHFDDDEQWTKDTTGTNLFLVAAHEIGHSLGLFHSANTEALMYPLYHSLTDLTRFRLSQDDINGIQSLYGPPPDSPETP

IC50: 17 nM
SMILES: CN1C(=O)N(CCC(COc2ccc(-c3ccc(C#N)cc3)cc2)N(O)C=O)C(=O)C1(C)C (racemic) [Example 5, (±)-N-[1-[[(4'-cyano-[1,1'-biphenyl]-4-yl)oxy]methyl]-3-(3,4,4-trimethyl-2,5-dioxo-1-imidazolidinyl)propyl]-N-hydroxyformamide]
